Data published in patent US20230391780A1, “COMPOSITIONS AND METHODS FOR TREATING KIT- AND PDGFRA-MEDIATED DISEASES” (Blueprint Medicines Corporation, priority 2020, published 2023).
Where two headings read alike, the source gives them in different places. One block for each compound: values may come before it.

Assays:
PDGFRα D842V = PDGFRα D842V (Homo sapiens, UniProt P16234, D842V); test: PDGFRα D842V biochemical enzymatic activity assay (EZReader 2 mobility shift); conditions: ATP at APPKM (25 μM), 90 minutes
Description: (§1) PDGFRα and KIT enzymatic activity was monitored using the Perkin Elmer electrophoretic mobility shift technology platform, the EZReader 2.
(§2) Within the linear, steady-state phase of the kinase enzymatic reaction, the mixed pool of phosphorylated (product) and non-phosphorylated (substrate) peptides was passed through the microfluidic system of the PerkinElmer EZ Reader 2, under an applied electric potential difference. The presence of the phosphate group on the product peptide provided a difference in mass and charge between that of the substrate peptide, resulting in a separation of the substrate and product pools in the sample (Perrin et al., Expert Opin Drug Discovery 2010, Jan. 5(1):51-63).
(§3) As the product and substrate peptide mixture passes the lasers within the instrument, these pools are detected (λex=488 nm, λem=568 nm) and resolved as separate peaks. The ratio between these peaks reflects the activity of the compound at that concentration, in that well, under those conditions.
(§4) All test articles were dissolved in 100% DMSO at a stock concentration of 10 mM. A 100×, 10-point, 4-fold serial dilution of all test compounds was created in 100% DMSO, starting at a relevant concentration, usually 1 mM. A volume of 0.130 μL of each concentration was transferred to the relevant well of a 384-well assay plate (Greiner 781 201) using a TTPLabtech Mosquito nano-liter dispenser. Using the Multidrop, the remaining constituents of the reaction were then added to the 0.130 μL of compound as follows:
The reaction was stopped by the addition of 70 μl of Stop buffer (100 mM HEPES pH 7.5, 0.015% Brij 35, 35 mM EDTA and 0.2% of Coating Reagent 3, Caliper Lifesciences). The plate was read on a Caliper EZReader 2.

[1] = Brain penetration in rats, brain to plasma ratios after 24 h IV infusion; format: in vivo, Sprague-Dawley rats; conditions: for Kp uu at 24 h: Sprague-Dawley, brain / plasma, intravenous, 1 mg/kg/hr; for Kp uu at 24 h / Rat Kp: Table 3B; for Rat Kp: methods as for compound 4
Description: To understand the brain penetration, brain to plasma ratios of the compounds were obtained in Sprague-Dawley (SD) rats. In vivo equilibrium distribution between blood and brain in preclinical species such as rats is a commonly used parameter to evaluate brain penetration. Kp,brain is the ratio of concentrations in brain and blood (Cbrain/Cplasma). The compound's passive diffusion characteristics, its affinity for membrane transporters at the blood-brain barrier (BBB), and the relative drug binding affinity differences between the plasma proteins and brain tissue influence the Kp,brain.
The animals received IV infusion of 1 mg/kg/hr of the compound over 24 hours via jugular vein cannulation. At 24 hours, blood was collected via tail vein bleeding or cardiac puncture (under anesthesia) and centrifuged to obtain plasma samples. Brain tissues were collected and homogenized with phosphate-buffered saline (PBS). The concentrations of the compounds were obtained in the plasma and brain homogenates by LC-MS/MS analysis.

wt KIT kinase = target: T1, wt KIT kinase (Homo sapiens, UniProt P10721); test: Wild-type KIT Kd determination (phage-tagged kinase competition binding, qPCR)
T1 construct: made in house; host or cells: E. coli derived from BL21, infected with T7 phage
Experimental: Kd Determinations. For most assays, including wt KIT kinase, kinase-tagged T7 phage strains were prepared in an E. coli host derived from the BL21 strain. E. coli were grown to log-phase and infected with T7 phage and incubated with shaking at 32° C. until lysis. […] The liganded beads were blocked with excess biotin and washed with blocking buffer (SeaBlock (Pierce), 1% BSA, 0.05% Tween 20, 1 mM DTT) to remove unbound ligand and to reduce non-specific binding. […] Test compounds were prepared as 111×stocks in 100% DMSO. Kds were determined using an 11-point 3-fold compound dilution series with three DMSO control points. […] The compounds were then diluted directly into the assays such that the final concentration of DMSO was 0.9%. All reactions were performed in polypropylene 384-well plate. Each was a final volume of 0.02 ml. […] The kinase concentration in the eluates was measured by qPCR.
Binding Constants (Kds). Binding constants (Kds) were calculated with a standard dose-response curve using the Hill equation: Response=Background+Signal−Background 1+(KdHill Slope/DoseHill Slope). The Hill Slope was set to −1. Curves were fitted using a non-linear least square fit with the Levenberg-Marquardt algorithm.

KIT D816V = KIT D816V (Homo sapiens, UniProt P10721, D816V); test: KIT D816V biochemical enzymatic activity assay (EZReader 2 mobility shift); conditions: ATP at APPKM (20 μM), 60 minutes
Description: as §1, §2, §3, §4
The reaction was stopped by the addition of 70 μl of Stop buffer (100 mM HEPES pH 7.5, Brij 35, 35 mM EDTA and 0.2% of Coating Reagent 3, Caliper Lifesciences). The plate was read on a Caliper EZReader 2.

[2] = target: T2, KIT D816V (HMC1.2 cells, KIT V560G and D816V) (Homo sapiens, UniProt P10721, D816V/V560G); test: HMC1.2 autophosphorylation assay (phospho-Y719 KIT AlphaLISA); format: cell-based; conditions: 90 minutes, KIT autophosphorylation at tyrosine 719, read-out: KIT (P-KIT HMC1.2 (nM))
T2 construct: endogenous in cells; host or cells: HMC1.2 (mast cell leukemia cell line)
Experimental: 10,000 HMC1.2 cells were incubated in 22 μL culture media (phenol-red free IMDM, no serum) in each well of a 384-well plate and serum starved overnight in a tissue culture incubator (5% CO2, 37° C.). […] 10 μL of […] streptavidin donor beads (Perkin Elmer) were added to each well, blocked from light with solid black adhesive and shaken at 300 rpm at room temperature for 2 hours. Fluorescence signal was obtained on Envision (Perkin Elmer) by AlphaScreen 384 well HTS protocol.

[3] = Pharmacokinetics after single intravenous and oral administration in rats; format: in vivo, Sprague-Dawley rats; conditions: iv 1 mg/kg, Clu=Cl/fu,plasma
Experimental: Assessment of pharmacokinetics following single intravenous and oral administration in rats: 3 Sprague-Dawley rats were employed for each compound for each route of administration (iv or oral). For iv administration, 1 mg/kg (dose volume=5 mL/kg) of each compound was administered by intravenous route via […] injection; whereas for oral route, 2.5 mg/kg (dose volume=5 mL/kg) was administered via oral gavage. Blood samples were obtained via tail vein at predose, 0.083, 0.25, 0.5, 1, 2, 4 and 8 hr. In addition, blood samples were also obtained at 24 hr via cardiac puncture (under anesthesia with Isoflurane) for terminal bleeding. All the blood samples were analyzed for the drug concentrations via LC/MS-MS. Pharmacokinetic parameters such as Cmax, Tmax, AUClast, AUCinf, MRTlast, MRTinf, T1/2, Vss and CL were obtained by non-compartmental analysis (NCA).

[4] = rat, fu,brain from brain slice, read-out: Rat Kp, uu Brain slice

KIT D816V, sequence (P10721 26-976 D816V): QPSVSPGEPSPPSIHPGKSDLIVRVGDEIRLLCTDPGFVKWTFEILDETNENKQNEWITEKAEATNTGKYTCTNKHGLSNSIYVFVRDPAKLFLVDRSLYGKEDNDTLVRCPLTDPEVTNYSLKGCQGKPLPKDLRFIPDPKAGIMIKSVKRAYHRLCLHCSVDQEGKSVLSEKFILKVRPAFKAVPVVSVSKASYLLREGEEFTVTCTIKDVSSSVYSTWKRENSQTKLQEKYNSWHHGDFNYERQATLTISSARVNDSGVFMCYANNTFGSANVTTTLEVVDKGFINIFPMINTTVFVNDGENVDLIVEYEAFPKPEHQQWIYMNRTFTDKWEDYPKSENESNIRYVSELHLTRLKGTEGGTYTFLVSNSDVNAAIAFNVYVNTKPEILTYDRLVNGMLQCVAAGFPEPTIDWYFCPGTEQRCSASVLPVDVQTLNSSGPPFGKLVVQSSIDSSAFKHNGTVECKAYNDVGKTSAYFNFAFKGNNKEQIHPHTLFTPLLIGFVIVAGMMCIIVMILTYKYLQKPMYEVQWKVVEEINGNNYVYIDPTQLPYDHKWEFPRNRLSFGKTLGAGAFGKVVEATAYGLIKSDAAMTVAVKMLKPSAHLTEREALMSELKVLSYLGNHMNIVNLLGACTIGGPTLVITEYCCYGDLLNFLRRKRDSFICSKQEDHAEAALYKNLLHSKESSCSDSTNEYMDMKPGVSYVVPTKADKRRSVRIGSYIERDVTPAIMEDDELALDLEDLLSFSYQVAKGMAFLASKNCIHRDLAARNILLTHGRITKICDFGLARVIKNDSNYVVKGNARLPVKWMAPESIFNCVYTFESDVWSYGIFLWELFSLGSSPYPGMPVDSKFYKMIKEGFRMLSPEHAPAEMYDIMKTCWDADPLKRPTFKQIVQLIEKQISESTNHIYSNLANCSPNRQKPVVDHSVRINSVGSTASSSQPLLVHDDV
PDGFRα D842V, sequence (P16234 24-1089 D842V): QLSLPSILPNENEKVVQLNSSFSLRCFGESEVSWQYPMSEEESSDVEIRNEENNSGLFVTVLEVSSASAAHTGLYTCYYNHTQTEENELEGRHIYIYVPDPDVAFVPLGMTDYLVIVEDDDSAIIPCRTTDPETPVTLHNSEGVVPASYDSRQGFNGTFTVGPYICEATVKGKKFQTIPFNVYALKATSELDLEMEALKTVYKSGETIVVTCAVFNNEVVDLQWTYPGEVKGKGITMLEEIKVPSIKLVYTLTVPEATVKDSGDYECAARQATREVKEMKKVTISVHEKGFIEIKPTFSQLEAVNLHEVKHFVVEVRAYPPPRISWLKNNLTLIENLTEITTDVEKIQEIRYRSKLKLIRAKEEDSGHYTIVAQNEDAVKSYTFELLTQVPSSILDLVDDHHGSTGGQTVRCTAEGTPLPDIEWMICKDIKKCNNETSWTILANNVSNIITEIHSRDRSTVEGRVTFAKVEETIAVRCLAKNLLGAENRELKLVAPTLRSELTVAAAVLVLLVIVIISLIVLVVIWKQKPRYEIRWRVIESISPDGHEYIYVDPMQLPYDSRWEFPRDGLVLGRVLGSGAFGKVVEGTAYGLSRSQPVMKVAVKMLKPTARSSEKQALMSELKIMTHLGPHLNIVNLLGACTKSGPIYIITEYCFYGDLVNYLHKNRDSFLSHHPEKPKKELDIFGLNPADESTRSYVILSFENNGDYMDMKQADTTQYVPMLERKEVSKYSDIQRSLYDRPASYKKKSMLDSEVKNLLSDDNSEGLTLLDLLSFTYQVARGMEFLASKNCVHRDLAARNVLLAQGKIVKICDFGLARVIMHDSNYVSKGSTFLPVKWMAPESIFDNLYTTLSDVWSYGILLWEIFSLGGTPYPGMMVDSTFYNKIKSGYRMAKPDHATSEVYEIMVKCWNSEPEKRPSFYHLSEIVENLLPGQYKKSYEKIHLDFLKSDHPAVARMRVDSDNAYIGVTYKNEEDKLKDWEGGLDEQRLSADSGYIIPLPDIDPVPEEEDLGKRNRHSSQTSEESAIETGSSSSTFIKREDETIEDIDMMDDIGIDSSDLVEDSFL
T1 sequence (P10721 26-976): as the sequence (P10721 26-976 D816V) above, with V791D counted along it
T2 sequence (P10721 26-976 V560G/D816V): as the sequence (P10721 26-976 D816V) above, with V535G counted along it

Compound: CC(C)(CO)n1cc(-c2cc3c(N4CCN(c5ncc([C@@](C)(N)c6ccc(F)cc6)cn5)CC4)ncnn3c2)cn1 [Compound 2, (S)-2-(4-(4-(4-(5-(1-amino-1-(4-fluorophenyl)ethyl)pyrimidin-2-yl)piperazin-1-yl)pyrrolo[2,1-f][1,2,4]triazin-6-yl)-1H-pyrazol-1-yl)-2-methylpropan-1-ol]
IC50 (PDGFRα D842V): ≤ 0.3 nM

Compound: C[C@@H](O)Cn1cc(-c2cc3c(N4CCN(c5ncc([C@@](C)(N)c6ccc(F)cc6)cn5)CC4)ncnn3c2)cn1 [Compound 3]
IC50 (PDGFRα D842V): ≤ 0.3 nM

Compound: C[C@](N)(c1ccc(F)cc1)c1cnc(N2CCN(c3ncnn4cc(-c5cnn(CCO)c5)cc34)CC2)nc1 [Compound 4, (S)-2-(4-(4-(4-(5-(1-Amino-1-(4-fluorophenyl)ethyl)pyrimidin-2-yl)piperazin-1-yl)pyrrolo[2,1-f][1,2,4]triazin-6-yl)-1H-pyrazol-1-yl)ethanol]
IC50 (PDGFRα D842V): ≤ 0.3 nM | Rat IV PK (Clu) (mL/min/kg), unbound clearance [3]: (582) mL/min/kg

Compound: C[C@H](CO)n1cc(-c2cc3c(N4CCN(c5ncc([C@@](C)(N)c6ccc(F)cc6)cn5)CC4)ncnn3c2)cn1 [Compound 5, (R)-2-(4-(4-(4-(5-((S)-1-Amino-1-(4-fluorophenyl)ethyl)pyrimidin-2-yl)piperazin-1-yl)pyrrolo[2,1-f][1,2,4]triazin-6-yl)-1H-pyrazol-1-yl)propan-1-ol]
IC50 (PDGFRα D842V): ≤ 0.3 nM

Compound: C[C@@H](CO)n1cc(-c2cc3c(N4CCN(c5ncc([C@@](C)(N)c6ccc(F)cc6)cn5)CC4)ncnn3c2)cn1 [Compound 6, (S)-2-(4-(4-(4-(5-((S)-1-amino-1-(4-fluorophenyl)ethyl)pyrimidin-2-yl)piperazin-1-yl)pyrrolo[2,1-f][1,2,4]triazin-6-yl)-1H-pyrazol-1-yl)propan-1-ol]
IC50 (PDGFRα D842V): ≤ 0.3 nM

Compound: C[C@H](O)Cn1cc(-c2cc3c(N4CCN(c5ncc([C@@](C)(N)c6ccc(F)cc6)cn5)CC4)ncnn3c2)cn1 [Compound 7]
IC50 (PDGFRα D842V): ≤ 0.3 nM

Compound: C[C@](N)(c1ccc(F)cc1)c1cnc(N2CCN(c3ncnn4cc(-c5cnn(CC6(O)CC6)c5)cc34)CC2)nc1 [Compound 8, (S)-1-((4-(4-(4-(5-(1-Amino-1-(4-fluorophenyl)ethyl)pyrimidin-2-yl)piperazin-1-yl)pyrrolo[2,1-f][1,2,4]triazin-6-yl)-1H-pyrazol-1-yl)methyl)cyclopropan-1-ol]
IC50 (PDGFRα D842V): ≤ 0.3 nM

Compound: C[C@](N)(c1ccc(F)cc1)c1cnc(N2CCN(c3ncnn4cc(-c5cnn(C6(CO)CC6)c5)cc34)CC2)nc1 [Compound 9, (S)-(1-(4-(4-(4-(5-(1-Amino-1-(4-fluorophenyl)ethyl)pyrimidin-2-yl)piperazin-1-yl)pyrrolo[2,1-f][1,2,4]triazin-6-yl)-1H-pyrazol-1-yl)cyclopropyl)methanol]
IC50 (PDGFRα D842V): ≤ 0.3 nM

Next, values leading:

IC50 (PDGFRα D842V): ≤ 0.3 nM | Kp uu at 24 h [1, 4]: 0.07 | Rat Kp [1]: 0.18 | Kd (wt KIT kinase): < 10 nM | IC50 (KIT D816V): 0.31 to 1 nM | IC50 [2]: < 4.5 nM
Compound: C[C@](N)(c1ccc(F)cc1)c1cnc(N2CCN(c3ncnn4cc(-c5cnn([C@H]6CC[C@@H]6O)c5)cc34)CC2)nc1 (single isomer, unassigned) [Compound 10]

IC50 (PDGFRα D842V): ≤ 0.3 nM | Kp uu at 24 h ([1]; rat, fu,brain from brain homogenate, read-out: Rat Kp, uu Homogenate): 0.06 | Kp uu at 24 h [1, 4]: 0.03 | Rat Kp [1]: 0.13 | Kd (wt KIT kinase): < 10 nM | IC50 (KIT D816V): ≤ 0.3 nM | IC50 [2]: < 4.5 nM
Compound: C[C@](N)(c1ccc(F)cc1)c1cnc(N2CCN(c3ncnn4cc(-c5cnn([C@@H]6CC[C@H]6O)c5)cc34)CC2)nc1 (single isomer, unassigned) [Compound 11]

IC50 (PDGFRα D842V): ≤ 0.3 nM | Unbound concentration, Brain ([1]; rat, total mean brain concentration x fu,brain (homogenate)): 1.7 | Unbound concentration, Plasma ([1]; rat, total mean plasma concentration x fu,p): 2.02 | IC50 (KIT D816V): ≤ 0.3 nM
Compound: CCn1cc(-c2cc3c(N4CCN(c5ncc([C@@](C)(N)c6ccc(F)cc6)cn5)CC4)ncnn3c2)cn1 [Comparator A, reference compound]

IC50 (PDGFRα D842V): ≤ 0.3 nM
Compound: CC(C)(O)Cn1cc(-c2cc3c(N4CCN(c5ncc([C@@](C)(N)c6ccc(F)cc6)cn5)CC4)ncnn3c2)cn1 [Compound 1, (S)-1-(4-(4-(4-(5-(1-Amino-1-(4-fluorophenyl)ethyl)pyrimidin-2-yl)piperazin-1-yl)pyrrolo[2,1-f][1,2,4]triazin-6-yl)-1H-pyrazol-1-yl)-2-methylpropan-2-ol]
